Source: US10010560B2, “Small molecule HSP70 inhibitors” (THE TRUSTEES OF THE UNIVERSITY OF PENNSYLVANIA, priority 2014, dated 2018)

How the values were obtained:
[1] = tested on: primary melanocytes and nontransformed human fibroblasts (IMR90); assay: Cellular ATP levels (AlamarBlue assay) in normal cells; format: cell-based
Text: FIGS. 5A-5F illustrates that PET-16 leads to loss of mitochondrial protein Cyclophilin D and impairs bioenergetics in tumor cells. FIGS. 5A-5D are western blots of HSP70, which is present at mitochondria of tumor H1299 cells but not in normal tissue, such as liver. The constitutively expressed 70 kDa family members, HSC70 and GRP75, are present in mitochondria of normal cells. Equal amounts of whole cell (WC)-, cytosolic (cyto)-, and mitochondrial (mito)-extracts prepared from cell lines H1299 (A, C) and MIA PaCa-2 (B) or normal (liver) cells (C, D) were examined by western blot analysis for the presence of the proteins indicated. […] Decreases of AlamarBlue® fluorescence, indicative of mitochondrial damage, are noted in PET-16-treated tumor cells (melanoma tumor cell line WM88 (-), melanoma tumor cell line WM3000 (×), melanoma tumor cell line WM852 (*), human melanoma 451 Lu cells (●), and melanoma tumor cell line WM989 (|), but not normal cells (nontransformed human fibroblasts (IMR90-♦) and primary melanocytes (▪)). Values are normalized to the vehicle-treated cells. Error bars represent standard deviation (s.d.) of four independent experiments.

[2] = tested on: mouse melanoma cell line B16; assay: Pulmonary metastatic model, B16 melanoma; format: in vivo; conditions: C57BL/6 mice injected with B16
Description: FIGS. 7A-7C illustrate that PET-16 impairs metastasis in a mouse model of melanoma. A well-recognized pulmonary metastatic model was utilized in which immunocompetent, wild-type C57BL/6 mice were injected with the highly metastatic mouse melanoma cell line B16, as indicated. […] FIG. 7A is a summary of the steps entailed in the model. FIG. 7B are photographs of biopsied lungs obtained from the infected mice. FIG. 7C provides a graphical representation of counts of metastatic colonies intermediate gray square represents 0 colonies, lightest gray square represents 1-10 colonies and darkest gray square represents >10 colonies) seen in lungs of vehicle-, PES-Cl- or PET-16-treated mice.
The inhibitory effect of PET-16 on metastasis was tested in vivo, a well-recognized pulmonary metastatic model was utilized in which immunocompetent, wild-type C57BL/6 mice were injected with the highly metastatic mouse melanoma cell line B16 (FIG. 7).

STAT3 and STAT1 = assay: IL-6 induced STAT3 and STAT1 phosphorylation in melanoma cell lines; format: cell-based; conditions: cells pre-treated with compound
Text: (§1) FIGS. 4A-4L illustrate that PET-16 impairs proteostasis. […] There is a general absence of obvious nuclei in PET-16 treated tumor cells. […] FIGS. 4D and 4E are gels of whole-cell extracts (WCE) prepared from human melanoma A875 (D) or 451 Lu (E) cells treated with DMSO, PES or PET-16 that were immunoprecipitated using an anti-HSP70 antibody. The excised band of about 70 kDa shown in the Coomassie gel is HSP70, as confirmed by liquid chromatography—tandem mass spectrometry analysis. FIGS. 4F-4I are western blots of cell lines were treated with DMSO, PES or PET-16 for 24 h and immunoblotted for the indicated proteins. FIG. 4J are western blots of indicated melanomas pretreated with DMSO, PES or PET-16, followed by treatment with IL-6. Cell extracts were immunoblotted for the proteins indicated. Inhibition of IL-6 induced STAT3 and STAT1 phosphorylation by PET-16. FIG. 4K is a western blot analysis indicating altered processing of cathepsin L from the larger precursor form to the smaller mature form in the indicated cells following PET-16 treatment for 24 h. FIG. 4L is a western blot of the human melanoma 451 Lu cells treated with DMSO, PES or PET-16 for 24 h. Cells were harvested in 1% NP40-containing lysis buffer, fractionated into detergent-soluble and detergent-insoluble preparations, and assayed by western blot for ubiquitin. […]

ubiquitin = assay: Western blot for ubiquitin in detergent fractions; format: cell-based, human; conditions: 451 Lu cells, 24 h, detergent insoluble fraction
Text: as §1

[3] = tested on: melanoma tumor cell line WM989; assay: Combination with BRAF inhibitor Vemurafenib, viability; format: cell-based, human
Text: FIG. 6 is a line graph illustrating that PET-16 synergizes with the BRAF inhibitor Vemurafenib to reduce the viability of the melanoma tumor cell line WM989 (▪). WM989 cells treated singularly with Vemurafenib are depicted by (●). No synergy was detected between Vemurafenib and PES-Cl.

With `C(#C[P+](c1ccccc1)(c1ccccc1)c1ccccc1)c1ccccc1.[Br-]` [PET-16, triphenyl(phenylethynyl)phosphonium bromide] the “total ATP levels” value [1] was “no decrease”, the lung metastases [2] was “significantly reduced” and the “IL-6 mediated phosphorylation of STAT3 and STAT1” value (STAT3 and STAT1) was “inhibited”. For the same compound, the ubiquitinated polypeptides (ubiquitin) was “accumulation” and the “synergy with PLX4032 (Vemurafenib)” value [3] was “able to synergize”.
